Paper PMC12118337, “Development of a Peptide Inhibitor Targeting the C‐SH2 Domain of the SHP2 Phosphatase” (Chembiochem, 2025)
Non-standard residues stand in square brackets, D forms with d. Residues, ends and D or L forms follow the SMILES beside them. *: point of attachment. 5FAM = O=C1OC2(c3ccc(O)cc3Oc3cc(O)ccc32)c2ccc(C(=O)*)cc21; F2Pmp = N[C@@H](Cc1ccc(C(F)(F)P(=O)(O)O)cc1)C(=O)O; Pmp = N[C@@H](Cc1ccc(CP(=O)(O)O)cc1)C(=O)O; pY = N[C@@H](Cc1ccc(OP(=O)(O)O)cc1)C(=O)O; X1 = O=C(O)C(C(=O)O)*

Legend:
SHP2 C‐SH2 domain = biological target: T1, SHP2 C‐SH2 domain (Homo sapiens, UniProt Q06124); assay: Fluorescence polarization (FP) binding assay, SHP2 C-SH2 domain; conditions: 100 nM FAM-labelled peptide; for Kd: increasing C-SH2 protein, 50 mM HEPES pH 7.5, 150 mM NaCl, 1 mM EDTA, 0.05% Tween 20, FP at 10 min, three independent experiments in technical triplicates, read-out: K D ± SEM, C‐SH2 (FP)
T1 construct: SHP2 N-SH2 domain (1–105), C-SH2 domain (106–220), PTP domain (224–541) and; His6 (pETM22 vector) (N, cleaved yes); made in house; host or cells: E. coli BL21(DE3)
T1 sequence (Q06124 106-220): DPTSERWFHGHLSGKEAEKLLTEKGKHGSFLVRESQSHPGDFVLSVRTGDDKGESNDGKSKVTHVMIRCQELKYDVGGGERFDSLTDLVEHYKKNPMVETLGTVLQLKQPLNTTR
Procedure: (§1) buffer and stored in 5 mL binding buffer at 4°C. His-tagged 3C protease (0.5 mg; EMBL) was added to the pooled eluted fractions and dialysed using Spectra Por Dialysis Tubing (MWCO 6-8 kDa, 23 mm; Spectrum Labs) in 1 L of binding buffer at 4°C for 3 hours, then overnight in fresh buffer. A new column was prepared by loading 2 mL Ni-NTA Agarose (Invitrogen) as a 50% slurry in EtOH. The column was washed with 10 mL H2O to remove the EtOH and equilibrated with 10 mL binding buffer. The protein/3C protease mixture was loaded onto the column and incubated for 1 hour at 4°C on a rocker. The flow through containing the protein was collected, the column was washed with 100 mL binding buffer and the 3C protease was eluted with 5 mL elution buffer. Protein purification was monitored by SDS-PAGE using NuPAGE 4-12% Bis-Tris Protein Gels (Invitrogen) run in MOPS buffer (50 mM MOPS, 50 mM Tris-HCl pH 7.7, 1 mM EDTA, 0.1% SDS) followed by Coomassie staining using Coomassie Brilliant Blue (Roth). The purified protein was dialysed into the final storage buffer (50 mM HEPES pH 7.5, 150 mM NaCl, 2 mM DTT, 20% glycerol). Aliquots were prepared and stored at -80°C until required. […]
(§2) 4. Fluorescence polarization
(§3) Fluorescence polarization (FP) was used to measure the binding of FAM-labelled peptides to the SHP2 C-SH2, SHP2 N-SH2, SHP2 PTP, CSK SH2 or Src SH2 domains. Each peptide was added to increasing concentrations of SHP2 C-SH2, SHP2 N-SH2, SHP2 PTP, CSK SH2 or Src SH2 protein in FP buffer (50 mM HEPES pH 7.5, 150 mM NaCl, 1 mM EDTA, 0.05% Tween 20) to give a final peptide […]
(§4) concentration of 100 nM in a final volume of 200 µL. For baseline subtraction, each peptide was added to FP buffer, instead of protein, with a final peptide concentration of 100 nM in a final volume of 200 µL. Samples were mixed gently then 3 x 60 µL of each sample was transferred into triplicate wells in a 96-well plate (OptiPlate-96 F Black; PerkinElmer). The FP was immediately measured on a Synergy H1 Microplate Reader (BioTek) with the excitation and emission monitored at 485 nm and 528 nm, respectively, over 30 minutes. FP values were automatically calculated by the Gen5 3.03 (BioTek) software associated with the microplate reader. Data were analysed in Excel 2016 by subtracting baseline values from FP values at 10 minutes. Data were then further analysed in GraphPad Prism 6 by plotting the baseline subtracted FP values against the protein concentration and fitting the data to a variable slope model of non-linear regression to obtain the KD values. Data are from three independent experiments, each performed in technical triplicates.
(§5) 5. Isothermal titration calorimetry […]
(§6) Analysis Software (Malvern Panalytical). For the data analysis, a 1:1 binding stoichiometry between the Ac-ITSM(pTyr) and SH2 domain was assumed. ITC measurements were performed once.

SHP2 N‐SH2 domain = biological target: T2, SHP2 N‐SH2 domain (Homo sapiens, UniProt Q06124); assay: Fluorescence polarization (FP) binding assay, SHP2 N-SH2 domain; conditions: 100 nM FAM-labelled peptide; for Kd: increasing N-SH2 protein, 50 mM HEPES pH 7.5, 150 mM NaCl, 1 mM EDTA, 0.05% Tween 20, FP at 10 min, three independent experiments in technical triplicates, read-out: K D ± SEM, N‐SH2 (FP)
T2 construct: SHP2 N-SH2 domain (1–105), C-SH2 domain (106–220), PTP domain (224–541) and; His6 (pETM22 vector) (N, cleaved yes); made in house; host or cells: E. coli BL21(DE3)
T2 sequence (Q06124 1-105): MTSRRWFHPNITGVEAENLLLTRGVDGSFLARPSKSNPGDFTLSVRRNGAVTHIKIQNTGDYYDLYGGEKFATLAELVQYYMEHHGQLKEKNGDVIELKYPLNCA
Procedure: as §1, §2, §3, §4, §5, §6

Structure (SMILES)	binding to the C‐SH2 domain, in words (SHP2 C‐SH2 domain)	Kd (SHP2 C‐SH2 domain) [µM]	binding to the N‐SH2 domain, in words (SHP2 N‐SH2 domain)	Kd (SHP2 N‐SH2 domain) [µM]
CC[C@H](C)[C@H](NC(=O)[C@@H](NC(=O)[C@H](C)NC(=O)[C@H](Cc1ccc(C(F)(F)P(=O)(O)O)cc1)NC(=O)[C@H](CCC(=O)O)NC(=O)[C@@H](NC(=O)[C@H](CCC(N)=O)NC(=O)[C@H](CCC(=O)O)NC(=O)c1ccc2c(c1)C(=O)OC21c2ccc(O)cc2Oc2cc(O)ccc21)[C@@H](C)O)[C@@H](C)O)C(=O)N[C@H](C(=O)N[C@@H](Cc1ccccc1)C(=O)N1CCC[C@H]1C(N)=O)C(C)C [FAM‐ITSM(F2Pmp)] (5FAM-EQTE[F2Pmp]ATIVFP-NH2)	marked decrease in binding affinity	> 2	slightly better binding than FAM‐ITSM(L‐OMT)	1.39 ± 0.063
CC[C@H](C)[C@H](NC(=O)[C@@H](NC(=O)[C@H](C)NC(=O)[C@H](Cc1ccc(OC(C(=O)O)C(=O)O)cc1)NC(=O)[C@H](CCC(=O)O)NC(=O)[C@@H](NC(=O)[C@H](CCC(N)=O)NC(=O)[C@H](CCC(=O)O)NC(=O)c1ccc2c(c1)C(=O)OC21c2ccc(O)cc2Oc2cc(O)ccc21)[C@@H](C)O)[C@@H](C)O)C(=O)N[C@H](C(=O)N[C@@H](Cc1ccccc1)C(=O)N1CCC[C@H]1C(N)=O)C(C)C [FAM‐ITSM(L‐OMT)] (5FAM-EQTEY(X1)ATIVFP-NH2)	retained binding	0.257 ± 0.0083		1.71 ± 0.105
CC[C@H](C)[C@H](NC(=O)[C@@H](NC(=O)[C@H](C)NC(=O)[C@H](Cc1ccc(CP(=O)(O)O)cc1)NC(=O)[C@H](CCC(=O)O)NC(=O)[C@@H](NC(=O)[C@H](CCC(N)=O)NC(=O)[C@H](CCC(=O)O)NC(=O)c1ccc2c(c1)C(=O)OC21c2ccc(O)cc2Oc2cc(O)ccc21)[C@@H](C)O)[C@@H](C)O)C(=O)N[C@H](C(=O)N[C@@H](Cc1ccccc1)C(=O)N1CCC[C@H]1C(N)=O)C(C)C [FAM‐ITSM(Pmp)] (5FAM-EQTE[Pmp]ATIVFP-NH2)	marked decrease in binding affinity	> 2	greatly reduced binding	> 10
CC[C@H](C)[C@H](NC(=O)[C@@H](NC(=O)[C@H](C)NC(=O)[C@H](Cc1ccc(OP(=O)(O)O)cc1)NC(=O)[C@H](CCC(=O)O)NC(=O)[C@@H](NC(=O)[C@H](CCC(N)=O)NC(=O)[C@H](CCC(=O)O)NC(=O)c1ccc2c(c1)C(=O)OC21c2ccc(O)cc2Oc2cc(O)ccc21)[C@@H](C)O)[C@@H](C)O)C(=O)N[C@H](C(=O)N[C@@H](Cc1ccccc1)C(=O)N1CCC[C@H]1C(N)=O)C(C)C [FAM‐ITSM(pTyr), reference compound] (5FAM-EQTE[pY]ATIVFP-NH2)		0.0489		0.164 ± 0.0195
CC[C@H](C)[C@H](NC(=O)[C@@H](NC(=O)[C@H](C)NC(=O)[C@H](Cc1ccc(OP(=O)(O)O)cc1)NC(=O)[C@H](CCC(=O)O)NC(=O)[C@@H](NC(=O)[C@H](CCC(N)=O)NC(=O)c1ccc2c(c1)C(=O)OC21c2ccc(O)cc2Oc2cc(O)ccc21)[C@@H](C)O)[C@@H](C)O)C(=O)N[C@@H](CCCCN)C(=O)N[C@H](C(=O)N1CCC[C@H]1C(N)=O)[C@@H](C)CC [compound 12] (5FAM-QTE[pY]ATIKIP-NH2)		0.141 ± 0.0062		
CC[C@H](C)[C@H](NC(=O)[C@@H](NC(=O)[C@H](C)NC(=O)[C@H](Cc1ccc(OP(=O)(O)O)cc1)NC(=O)[C@H](CCC(=O)O)NC(=O)[C@@H](NC(=O)[C@H](CCCCN)NC(=O)c1ccc2c(c1)C(=O)OC21c2ccc(O)cc2Oc2cc(O)ccc21)[C@@H](C)O)[C@@H](C)O)C(=O)N[C@@H](CCCCN)C(=O)N[C@@H](Cc1c[nH]cn1)C(=O)N1CCC[C@H]1C(N)=O [compound 19] (5FAM-KTE[pY]ATIKHP-NH2)		0.105 ± 0.0036		
CC[C@H](C)[C@H](NC(=O)[C@@H](NC(=O)[C@H](C)NC(=O)[C@H](Cc1ccc(OP(=O)(O)O)cc1)NC(=O)[C@H](CCC(=O)O)NC(=O)[C@H](CCC(=O)O)NC(=O)[C@H](CCCCN)NC(=O)c1ccc2c(c1)C(=O)OC21c2ccc(O)cc2Oc2cc(O)ccc21)[C@@H](C)O)C(=O)N[C@@H](CCCCN)C(=O)N[C@@H](Cc1c[nH]cn1)C(=O)N1CCC[C@H]1C(N)=O [compound 20] (5FAM-KEE[pY]ATIKHP-NH2)		> 0.5		
